Test results taken from patent US20230158064A1 (priority 2020, published 2023).

How the values were obtained:
COVID-19 (SARS-CoV-2) = experiment: Example 2: INOpulse (pulsed iNO) expanded access series in hospitalized patients with hypoxemia due to COVID-19; format: in vivo; conditions: for ratio of oxygen saturation to fraction of inspired oxygen (SpO2/FiO2), median: FiO2 estimated from oxygen flow
[1] = system: severe acute respiratory syndrome-related coronavirus (SARS-CoV); conditions: cited from earlier work
[2] = system: cells infected with SARS-CoV; conditions: cited from earlier work
COVID-19 = experiment: Example 1: randomized open-label study of pulsed iNO versus standard of care in COVID-19, initial data; format: in vivo; conditions: three COVID-19 patients that completed the regimen
Procedure: This example discloses a randomized, open-label study to assess the efficacy and safety of pulsed iNO compared to standard of care (SOC) in subjects with COVID-19 who are hospitalized and require supplemental oxygen without assisted ventilation. Up to 500 subjects are randomized to receive either (a) iNO 125 mcg/kg IBW/hr for at least 8 hours and up to 24 hours daily for 3 days to 14 days or until resolution or discharge at the discretion of the Investigator, or (b) standard of care. No placebo arm is used. Subjects are followed through Day 28 to assess their clinical status. The primary objective in this study is to verify the efficacy of iNO in subjects with COVID-19. The secondary objective in this study is to evaluate the safety of iNO in subjects with COVID-19.
Outcomes are assessed using an outcome scale assessed 14 days after randomization.
Prior to receiving treatment with iNO, subjects were screened to confirm eligibility. […] Subjects in the iNO group are treated by means of an INOpulse device using a readily available cannula on site.
At day 0 of the study, subjects testing positive for COVID-19 are evaluated for vital signs, blood chemistry, and a chest x-ray or CT scan, and an overall physical exam is performed. Daily vital signs, oxygen measurements (pulse oximetry), methemoglobin levels, and adverse events are assessed through the entire course of treatment. […]

SARS = conditions: human, in vivo; cited from earlier work
[3] = one subject (CVD19-029), higher dose 250 mcg/kg IBW/hour (approximately 40 ppm)
[4] = patients that completed iNO treatment and were discharged

## [N]=O [iNO, nitric oxide]
COVID-19 (SARS-CoV-2); Discharge
  Oxygen Saturation (SpO2), Median: 95%
COVID-19 (SARS-CoV-2); Discharge, n=20
  Oxygen Therapy (L/min), Median: 0.0 L/min
COVID-19 (SARS-CoV-2); Discharge, scale of Table A
  8 Point Ordinal Scale, Median: 7
COVID-19 (SARS-CoV-2); Post-iNO
  Oxygen Saturation (SpO2), Median: 95%
COVID-19 (SARS-CoV-2); Post-iNO (first day off iNO), scale of Table A
  8 Point Ordinal Scale, Median: 4
COVID-19 (SARS-CoV-2); Post-iNO, n=22
  Oxygen Therapy (L/min), Median: 2.0 L/min
COVID-19 (SARS-CoV-2); baseline (start of iNO)
  ratio of oxygen saturation to fraction of inspired oxygen (SpO2/FiO2), median: 229
COVID-19 (SARS-CoV-2); iNO-End
  Oxygen Saturation (SpO2), Median: 95%
COVID-19 (SARS-CoV-2); iNO-End, n=22
  Oxygen Therapy (L/min), Median: 3.3 L/min
COVID-19 (SARS-CoV-2); iNO-End, scale of Table A
  8 Point Ordinal Scale, Median: 4
COVID-19 (SARS-CoV-2); iNO-Start (baseline), n=24, iNO 125 mcg/kg IBW/hour
  Oxygen Therapy (L/min), Median: 5.0 L/min
COVID-19 (SARS-CoV-2); iNO-Start (baseline), pulse oximetry
  Oxygen Saturation (SpO2), Median: 94%
COVID-19 (SARS-CoV-2); iNO-Start, scale of Table A (1 death to 8 not hospitalized, no limitations)
  8 Point Ordinal Scale, Median: 4
COVID-19 (SARS-CoV-2); of 24 COVID-19 positive patients
  patients discharged from the hospital at the time of report: 19 patients
COVID-19 (SARS-CoV-2); of 24 patients, elderly person with severe comorbidities, iNO for less than 24 hours
  deaths: one
COVID-19 (SARS-CoV-2); on completion of iNO
  ratio of oxygen saturation to fraction of inspired oxygen (SpO2/FiO2), median: 286
COVID-19 (SARS-CoV-2); [3]
  clinical response: responded well and was discharged home without supplemental oxygen
  tolerability: well tolerated
COVID-19 (SARS-CoV-2); [4]
  Time to Discharge from hospitalization (median, range): 10 (6-23) Days
  Time to Discharge from start of iNO (median, range): 6 (3-14) Days
COVID-19 (SARS-CoV-2); period after iNO
  ratio of oxygen saturation to fraction of inspired oxygen (SpO2/FiO2), median: 346
[1]
  replication of SARS-CoV: inhibits the replication
[2]
  cellular survival of cells infected with SARS-CoV: improves cellular survival
COVID-19
  need for mechanical ventilation: avoid the need for mechanical ventilation
COVID-19; iNO 125 mcg/kg IBW/hr
  oxygenation: improved oxygenation
SARS
  arterial oxygenation: improvements in arterial oxygenation
  chest radiography: reduction in density of lung infiltrates
  supplemental oxygen and need for ventilatory support: reduction in supplemental oxygen and need for ventilatory support
  time to hospital discharge: shorter time to hospital discharge
